Assay results reported in ChEMBL document CHEMBL1201862, “PubChem BioAssay data set” (2004).
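Exposure lasted 48 hours, with cells grown in 96-well plates and compounds tested at five concentrations. At the GI50, growth is halved.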 Calls of active or inactive are those of the source. Cut-off read from the data, not from the text of the source: active = GI50 up to about 1.1 µM and inactive = higher.

How the values were obtained:
Assay in all cases: NCI tumour cell line growth inhibition, 48 h
[1] = test system: MDA-MB-231
[2] = test system: SK-OV-3
[3] = test system: OVCAR-4
[4] = test system: A498
[5] = test system: ACHN
[6] = test system: UO-31
[7] = test system: LOX IMVI
[8] = test system: RXF 393
[9] = test system: NCI-H226
[10] = test system: PC-3
[11] = test system: UACC-257
[12] = test system: SR
[13] = test system: M14
[14] = test system: NCI-H522
[15] = test system: 786-0
[16] = test system: NCI/ADR-RES
[17] = test system: OVCAR-8
[18] = test system: CCRF-CEM
[19] = test system: SW-620
[20] = test system: MCF7
[21] = test system: HOP-92
[22] = test system: HCC 2998
[23] = test system: OVCAR-3
[24] = test system: NCI-H23
[25] = test system: SK-MEL-2
[26] = test system: TK-10
[27] = test system: IGROV-1
[28] = test system: MDA-MB-435
[29] = test system: KM12
[30] = test system: DU-145
[31] = test system: SF-539
[32] = test system: HT-29
[33] = test system: SF-295
[34] = test system: Hs-578T
[35] = test system: CAKI-1
[36] = test system: HCT-15
[37] = test system: NCI-H460
[38] = test system: HCT-116
[39] = test system: HOP-62
[40] = test system: T47D
[41] = test system: SK-MEL-28
[42] = test system: HL-60
[43] = test system: SK-MEL-5
[44] = test system: U-251
[45] = test system: OVCAR-5
[46] = test system: K562
[47] = test system: MOLT-4
[48] = test system: RPMI-8226
[49] = test system: SF-268
[50] = test system: EKVX
[51] = test system: COLO 205
[52] = test system: SN12C
[53] = test system: Malme-3M
[54] = test system: SNB-75
[55] = test system: MDA-N
[56] = test system: SNB-19
[57] = test system: UACC-62
[58] = test system: A549

For `CCn1c(-c2cc3ccccc3cc2OC(C)=O)n[nH]c1=S`, the GI50 [1] was 26.1 µM (inactive), the GI50 [2] was 50.7 µM (inactive) and the GI50 [3] was 30 µM (inactive). For the same compound, the GI50 [4] was 25.8 µM (inactive), the GI50 [5] was 35.8 µM (inactive) and the GI50 [6] was 67.8 µM (inactive). The GI50 [7] was 37.2 µM (inactive), the GI50 [8] was 11.1 µM (inactive) and the GI50 [9] was 38.6 µM (inactive). The GI50 [10] was 15.8 µM (inactive), the GI50 [11] was 24.2 µM (inactive) and the GI50 [12] was 0.624 µM (active). The GI50 [13] was 24.2 µM (inactive), the GI50 [14] was 16.1 µM (inactive) and the GI50 [15] was 75.7 µM (inactive). The GI50 [16] was 21.2 µM (inactive), the GI50 [17] was 38.4 µM (inactive) and the GI50 [18] was 1.16 µM (inactive). For the same compound, the GI50 [19] was 35 µM (inactive), the GI50 [20] was 30.8 µM (inactive) and the GI50 [21] was 58.1 µM (inactive). The GI50 [22] was 18 µM (inactive), the GI50 [23] was 23.7 µM (inactive) and the GI50 [24] was 30.5 µM (inactive). For the same compound, the GI50 [25] was 18.2 µM (inactive), the GI50 [26] was 27.4 µM (inactive) and the GI50 [27] was 39.6 µM (inactive). For the same compound, the GI50 [28] was 23.3 µM (inactive), the GI50 [29] was 27.6 µM (inactive) and the GI50 [30] was 35.5 µM (inactive). The GI50 [31] was 35.6 µM (inactive), the GI50 [32] was 30.4 µM (inactive) and the GI50 [33] was 23.4 µM (inactive). The GI50 [34] was 15.2 µM (inactive), the GI50 [35] was 30.8 µM (inactive) and the GI50 [36] was 27 µM. For the same compound, the GI50 [37] was 24.7 µM (inactive), the GI50 [38] was 18.5 µM (inactive) and the GI50 [39] was 57.3 µM (inactive). For the same compound, the GI50 [40] was 18.6 µM (inactive), the GI50 [41] was 32.4 µM (inactive) and the GI50 [42] was 0.0805 µM (active). For the same compound, the GI50 [43] was 14.9 µM (inactive), the GI50 [44] was 20.2 µM (inactive) and the GI50 [45] was 44.6 µM (inactive). The GI50 [46] was 14.5 µM (inactive), the GI50 [47] was 18.7 µM (inactive) and the GI50 [48] was 18.7 µM (inactive). For the same compound, the GI50 [49] was 24.9 µM (inactive) and the GI50 [50] was 9.95 µM (inactive).
For `c1cc2c(cc1NC1=NCCO1)OCO2`, the GI50 [1] was > 100 µM (inactive), the GI50 [2] was > 100 µM (inactive) and the GI50 [3] was > 100 µM (inactive). For the same compound, the GI50 [4] was > 100 µM (inactive), the GI50 [5] was > 100 µM (inactive) and the GI50 [6] was > 100 µM (inactive). The GI50 [7] was > 100 µM (inactive), the GI50 [8] was > 100 µM (inactive) and the GI50 [51] was > 100 µM (inactive). For the same compound, the GI50 [9] was > 100 µM (inactive), the GI50 [10] was > 100 µM (inactive) and the GI50 [12] was 64.3 µM (inactive). The GI50 [13] was > 100 µM (inactive), the GI50 [14] was > 100 µM (inactive) and the GI50 [15] was > 100 µM (inactive). The GI50 [16] was > 100 µM (inactive), the GI50 [52] was > 100 µM (inactive) and the GI50 [17] was > 100 µM (inactive). For the same compound, the GI50 [18] was 12.9 µM (inactive), the GI50 [19] was > 100 µM (inactive) and the GI50 [20] was > 100 µM (inactive). The GI50 [21] was > 70.3 µM (inactive), the GI50 [22] was > 100 µM (inactive) and the GI50 [23] was > 100 µM (inactive). The GI50 [24] was > 100 µM (inactive), the GI50 [53] was > 100 µM (inactive) and the GI50 [54] was 45.9 µM (inactive). For the same compound, the GI50 [25] was > 100 µM (inactive), the GI50 [26] was > 100 µM (inactive) and the GI50 [27] was > 100 µM (inactive). The GI50 [28] was 50.4 µM (inactive), the GI50 [29] was > 100 µM (inactive) and the GI50 [30] was > 100 µM (inactive). For the same compound, the GI50 [31] was > 100 µM (inactive), the GI50 [55] was 42.2 µM (inactive) and the GI50 [56] was > 100 µM (inactive). The GI50 [32] was > 100 µM (inactive), the GI50 [33] was > 100 µM (inactive) and the GI50 [34] was > 100 µM (inactive). The GI50 [35] was > 100 µM (inactive), the GI50 [36] was > 100 µM and the GI50 [37] was > 100 µM (inactive). For the same compound, the GI50 [57] was > 100 µM (inactive), the GI50 [38] was > 100 µM (inactive) and the GI50 [39] was > 100 µM (inactive). The GI50 [58] was > 100 µM (inactive), the GI50 [40] was > 100 µM (inactive) and the GI50 [41] was > 100 µM (inactive). For the same compound, the GI50 [42] was 41.2 µM (inactive), the GI50 [43] was > 100 µM (inactive) and the GI50 [44] was > 100 µM (inactive). The GI50 [45] was > 100 µM (inactive), the GI50 [46] was 11.9 µM (inactive) and the GI50 [47] was > 100 µM (inactive). The GI50 [48] was > 100 µM (inactive), the GI50 [49] was > 100 µM (inactive) and the GI50 [50] was > 100 µM (inactive).
`Cc1oc2ccccc2c(=O)c1Cn1nnc2ccccc21` was tested, and the GI50 [1] was 91.4 µM (inactive), the GI50 [2] was > 100 µM (inactive) and the GI50 [3] was 53.3 µM (inactive). For the same compound, the GI50 [4] was 62.1 µM (inactive), the GI50 [5] was 41.6 µM (inactive) and the GI50 [6] was 47.3 µM (inactive). For the same compound, the GI50 [7] was 73.3 µM (inactive), the GI50 [51] was 42.9 µM (inactive) and the GI50 [9] was 53.1 µM (inactive). For the same compound, the GI50 [10] was > 100 µM (inactive), the GI50 [11] was 26.4 µM (inactive) and the GI50 [12] was 35.9 µM (inactive). The GI50 [13] was 80.7 µM (inactive), the GI50 [15] was > 100 µM (inactive) and the GI50 [16] was 60.7 µM (inactive). For the same compound, the GI50 [52] was > 100 µM (inactive), the GI50 [17] was 43.3 µM (inactive) and the GI50 [18] was 95.1 µM (inactive). For the same compound, the GI50 [19] was > 100 µM (inactive), the GI50 [20] was 21.8 µM (inactive) and the GI50 [21] was 18.6 µM (inactive). For the same compound, the GI50 [22] was > 100 µM (inactive), the GI50 [23] was 30.6 µM (inactive) and the GI50 [24] was > 100 µM (inactive). The GI50 [53] was > 100 µM (inactive), the GI50 [54] was 45.6 µM (inactive) and the GI50 [25] was > 100 µM (inactive). The GI50 [26] was > 100 µM (inactive), the GI50 [28] was 41.3 µM (inactive) and the GI50 [29] was > 100 µM (inactive). The GI50 [30] was 25.5 µM (inactive), the GI50 [31] was > 100 µM (inactive) and the GI50 [55] was 39.4 µM (inactive). For the same compound, the GI50 [56] was > 100 µM (inactive), the GI50 [32] was 91.8 µM (inactive) and the GI50 [33] was > 100 µM (inactive). The GI50 [34] was 83.2 µM (inactive), the GI50 [36] was 96.2 µM and the GI50 [37] was 43.8 µM (inactive). For the same compound, the GI50 [57] was 41.7 µM (inactive), the GI50 [38] was 59.7 µM (inactive) and the GI50 [39] was > 100 µM (inactive). The GI50 [58] was 70.8 µM (inactive), the GI50 [40] was 10.6 µM (inactive) and the GI50 [41] was 74 µM (inactive). For the same compound, the GI50 [42] was 48.5 µM (inactive), the GI50 [43] was 20.5 µM (inactive) and the GI50 [44] was > 100 µM (inactive). For the same compound, the GI50 [45] was > 100 µM (inactive), the GI50 [46] was 56.6 µM (inactive) and the GI50 [47] was 37.2 µM (inactive). For the same compound, the GI50 [48] was 35.7 µM (inactive), the GI50 [49] was 34.3 µM (inactive) and the GI50 [50] was > 100 µM (inactive).
